Data: PubChem BioAssay AID2060336 (Molecular Pharmacology Branch, DTP, NCI, 2025)

Tested on: 958767-090-R-J1-PDC spheroid growth
Test: Anticancer human tumor 958767-090-R-J1-PDC patient-derived head and neck squamous carcinoma cell line growth inhibition [IpAb]
Details: spheroids with HUVEC and MSC; for IC50: curve of first compound; for viability, T/C: stronger effect = lower value
Source text: Combinatorial screen of targeted agents with ipatasertib and abemaciclib in multi-cell type tumor spheroids
A high-throughput screen of multi-cell type tumor spheroids was designed to identify active combinations of targeted small molecules and ipatasertib or abemaciclib. Complex spheroids include a stromal component modeled by human endothelial cells (HUVEC) and fibroblasts modeled by human mesenchymal stem cells (MSCs). The concentration ranges selected for each drug and investigational agent were based upon clinically achievable concentrations if the clinical Cmax of the agent was known.
Compounds. The drugs and investigational agents: ipatasertib (NSC767898), abemaciclib(NSC768073), selumetinib (NSC741078), trametinib (758246), adavosertib (NSC754352), everolimus (NSC733504), sapanisertib (NSC764658), vemurafenib (NSC761431), venetoclax (NSC766270), copanlisib (NSC809693), apelisib (NSC765974), palbociblib (NSC758247), vemurafenib (NSC761431), dabrafenib (NSC764134), ravoxertinib (NSC781343), BMS-387032 (NSC767048), sotorasib (NSC818433), talazoparib (NSC767125) and afursertib (NSC778305), were obtained from the National Cancer Institute (NCI) Developmental Therapeutics Program Chemical Repository. The FDA-approved anticancer drug set is available from the NCI Developmental Therapeutics Program. […] The stock solutions were prepared in dimethyl sulfoxide (DMSO, Sigma-Aldrich, St. Louis, MO, cat. D2650) at 800-fold the tested concentration and stored at -70 degrees C prior to their use. All drugs and investigational agents were tested over a range starting from a high concentration at or near the clinical Cmax and decreasing in half-log increments. If the clinical Cmax for an agent had not been determined, the highest concentration tested was 10 microM.
NCI60 Cell Culture. NCI60 cell lines were obtained from the NCI Developmental Therapeutics Program Tumor Repository. For each lot of cells, the Repository performed Applied Biosystems AmpFLSTR Identifiler testing with PCR amplification to confirm consistency with the published Identifier STR profile for each cell line. Cells were kept in continuous culture for no more than 20 passages. The optimal seeding densities for each of the cell lines at each time point assessed were determined prior to performing the concentration response studies. Briefly, the NCI60 human tumor lines were grown as monolayers in RPMI 1640 medium supplemented with 10% FBS and 2 mmol/L L-glutamine.
An additional 9 lines were from the NCI60 cell line panel including MDA-MB-231 breast carcinoma, MDA-MB-468 breast carcinoma, MCF7 breast carcinoma, Hs578T breast carcinoma, MALME-3M melanoma, SK-MEL-2 melanoma, SK-OV-3 ovarian carcinoma, DU-145 prostate carcinoma, PC-3 prostate carcinoma, all cell lines along with major genetic alterations are listed on Table 2. Pooled donor human umbilical vein endothelial cells (HUVEC, Lonza, cat. CC-2519) and human mesenchymal stem cells (hMSC, Lonza, cat. PT-2501) were purchased from Lonza (Walkersville, MD).
PDMR cell lines were grown in complete medium (DC medium): Dulbecco's modified Eagle's medium (DMEM)/F12 supplemented with 5% fetal bovine serum (FBS), 2 mM L-glutamine, 100 U/mL penicillin and 100 µg/ml streptomycin, 0.4 µg/ml hydrocortisone, 10 ng/ml epidermal growth factor (EGF) recombinant human protein, 24 µg/mL adenine, and 0.1 mg/mL primocin. During culture from frozen stock vials, PDMR cells were cultured in the same medium containing 10 µM Y-27632 (see Table 3). The PDCs were cultured in complete DMEM/F12 media without 10 microM Y-27632 dihydrochloride for at least two passages prior to the screen. The pooled donor HUVEC and hMSC were cultured in endothelial cell growth medium 2 (PromoCell, Heidelberg, Germany, cat. C-22011) and mesenchymal stem cell growth medium 2 (PromoCell, cat. C-28009), respectively. For all experiments, HUVEC and hMSC were used at passages </=5.
[…]

[1] = second compound 0.1 µM, first compound 0.0316 µM
[2] = second compound 0.1 µM, first compound 0.1 µM
[3] = second compound 0.316 µM, first compound 0.0316 µM
[4] = second compound 0.316 µM, first compound 0.1 µM
[5] = second compound 1 µM, first compound 0.0316 µM
[6] = second compound 1 µM, first compound 0.1 µM
[7] = second compound 3.16 µM, first compound 0.0316 µM
[8] = second compound 3.16 µM, first compound 0.1 µM
[9] = second compound 10 µM, first compound 0.0316 µM
[10] = second compound 10 µM, first compound 0.1 µM
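Note: spheroids exposed to agents for 7 days.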
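Throughout, for viability, T/C: 100% = DMSO vehicle control wells.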

C=CCn1c(=O)c2cnc(Nc3ccc(N4CCN(C)CC4)cc3)nc2n1-c1cccc(C(C)(C)O)n1 + CC(C)NCC(C(=O)N1CCN(c2ncnc3c2C(C)CC3O)CC1)c1ccc(Cl)cc1
IC50 (second compound 0.1 µM): 179 nM
IC50 (second compound 0.316 µM): 85 nM
IC50 (second compound 1 µM): 45.5 nM
IC50 (second compound 3.16 µM): 45.9 nM
IC50 (second compound 10 µM): < 31.6 nM
viability, T/C [1]: 88.2%
viability, T/C [2]: 65%
viability, T/C (second compound 0.1 µM, first compound 0.316 µM): 35%
viability, T/C (second compound 0.1 µM, first compound 1 µM): 25%
viability, T/C (second compound 0.1 µM, first compound 3.16 µM): 23.7%
viability, T/C (second compound 0.1 µM, first compound 10 µM): 19.6%
viability, T/C [3]: 64.1%
viability, T/C [4]: 47.7%
viability, T/C (second compound 0.316 µM, first compound 0.316 µM): 24.2%
viability, T/C (second compound 0.316 µM, first compound 1 µM): 17%
viability, T/C (second compound 0.316 µM, first compound 3.16 µM): 17.8%
viability, T/C (second compound 0.316 µM, first compound 10 µM): 15.2%
viability, T/C [5]: 52.1%
viability, T/C [6]: 45.4%
viability, T/C (second compound 1 µM, first compound 0.316 µM): 23.5%
viability, T/C (second compound 1 µM, first compound 1 µM): 15.6%
viability, T/C (second compound 1 µM, first compound 3.16 µM): 16.9%
viability, T/C (second compound 1 µM, first compound 10 µM): 13%
viability, T/C [7]: 55%
viability, T/C [8]: 39.6%
viability, T/C (second compound 3.16 µM, first compound 0.316 µM): 22.2%
viability, T/C (second compound 3.16 µM, first compound 1 µM): 16.2%
viability, T/C (second compound 3.16 µM, first compound 3.16 µM): 14.8%
viability, T/C (second compound 3.16 µM, first compound 10 µM): 11.9%
viability, T/C [9]: 39.1%
viability, T/C [10]: 32.4%
viability, T/C (second compound 10 µM, first compound 0.316 µM): 17.9%
viability, T/C (second compound 10 µM, first compound 1 µM): 13.9%
viability, T/C (second compound 10 µM, first compound 3.16 µM): 13.6%
viability, T/C (second compound 10 µM, first compound 10 µM): 7.78%

CC(C)n1nc(-c2ccc3oc(N)nc3c2)c2c(N)ncnc21 + CC(C)NCC(C(=O)N1CCN(c2ncnc3c2C(C)CC3O)CC1)c1ccc(Cl)cc1
IC50 (second compound 0.1 µM): 9.11 nM
IC50 (second compound 0.316 µM): 1.82 nM
IC50 (second compound 1 µM): 1.13 nM
IC50 (second compound 3.16 µM): 0.83 nM
IC50 (second compound 10 µM): < 0.316 nM
viability, T/C (second compound 0.1 µM, first compound 0.000316 µM): 78.4%
viability, T/C (second compound 0.1 µM, first compound 0.001 µM): 72.8%
viability, T/C (second compound 0.1 µM, first compound 0.00316 µM): 53.6%
viability, T/C (second compound 0.1 µM, first compound 0.01 µM): 57.9%
viability, T/C [1]: 32.8%
viability, T/C [2]: 32.6%
viability, T/C (second compound 0.316 µM, first compound 0.000316 µM): 72.4%
viability, T/C (second compound 0.316 µM, first compound 0.001 µM): 58.5%
viability, T/C (second compound 0.316 µM, first compound 0.00316 µM): 43.5%
viability, T/C (second compound 0.316 µM, first compound 0.01 µM): 29.8%
viability, T/C [3]: 37.4%
viability, T/C [4]: 33.4%
viability, T/C (second compound 1 µM, first compound 0.000316 µM): 59.1%
viability, T/C (second compound 1 µM, first compound 0.001 µM): 51.9%
viability, T/C (second compound 1 µM, first compound 0.00316 µM): 40.7%
viability, T/C (second compound 1 µM, first compound 0.01 µM): 34%
viability, T/C [5]: 29.1%
viability, T/C [6]: 25%
viability, T/C (second compound 3.16 µM, first compound 0.000316 µM): 61.4%
viability, T/C (second compound 3.16 µM, first compound 0.001 µM): 47.2%
viability, T/C (second compound 3.16 µM, first compound 0.00316 µM): 37.2%
viability, T/C (second compound 3.16 µM, first compound 0.01 µM): 26%
viability, T/C [7]: 21.1%
viability, T/C [8]: 17.2%
viability, T/C (second compound 10 µM, first compound 0.000316 µM): 47.4%
viability, T/C (second compound 10 µM, first compound 0.001 µM): 42.5%
viability, T/C (second compound 10 µM, first compound 0.00316 µM): 34.6%
viability, T/C (second compound 10 µM, first compound 0.01 µM): 17%
viability, T/C [9]: 13.6%
viability, T/C [10]: 13%
